Test results: article PMC10321483 (Chemical Science, 2023)
Values joined by “and” are separate entries in the source; they are usually repeats but may differ in a detail not shown here. Equal values may be shown once.

biological target: T1, LdtMt2 (Mycobacterium tuberculosis, UniProt I6Y9J2); test: Rate constant of covalent target inactivation (kinact/KI), endpoint competition assay with probe 2; type: biochemical; set-up: made in house; host or cells: E. coli; conditions: not given
T1 sequence (I6Y9J2 56-408): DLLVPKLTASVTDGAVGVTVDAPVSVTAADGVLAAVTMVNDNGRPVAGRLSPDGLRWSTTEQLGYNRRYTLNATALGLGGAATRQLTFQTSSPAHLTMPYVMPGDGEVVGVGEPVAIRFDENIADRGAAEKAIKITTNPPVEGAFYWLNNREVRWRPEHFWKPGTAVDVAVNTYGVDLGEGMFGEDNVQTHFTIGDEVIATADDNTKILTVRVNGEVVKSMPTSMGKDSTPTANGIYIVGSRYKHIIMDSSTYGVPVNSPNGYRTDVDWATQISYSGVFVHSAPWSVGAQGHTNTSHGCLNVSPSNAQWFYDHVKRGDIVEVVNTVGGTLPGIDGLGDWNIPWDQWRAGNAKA

SMILES	kinact/KI [M⁻¹ s⁻¹]
O=C1C=CC(=O)N1c1ccccc1 [Compound 3]	3990 ± 356

same assay, conditions: 100 nM LdtMt2, 10 µM probe 2, 3 h incubation; n=4

SMILES	kinact/KI [M⁻¹ s⁻¹]
N#Cn1c(-c2cc(F)cc(C(F)(F)F)c2)nc2ccccc21 [Compound 23]	265
Cc1nc(-c2ccc(-c3nc4ccccc4n3C#N)cc2)cs1 [Compound 30]	236 ± 9.5
N#Cn1c(-c2ccncc2)nc2ccc(C(=O)c3ccccc3)cc21 [Compound 36]	51.0 ± 3.4
O=C(OCN1C(=O)C=CC1=O)c1ccccc1 [Compound 7]	156 ± 5.1
O=C1C=CC(=O)N1c1ccc(Oc2ccccc2)c(Cl)c1 [Compound 5]	116 ± 6.2
O=C(NC(Cc1ccccc1)C(=O)CCl)c1cc(Cc2ccccc2)on1 (stereo not shown) [Compound 1]	1152 ± 87

test system: not listed separately; test: Intrinsic thiol reactivity (kchem), competition with probe 2 for L-glutathione; type: physicochemical; conditions: Table S5; L-glutathione 500 nM, probe 2 10 µM, 15 h

SMILES	kchem (apparent intrinsic thiol reactivity) [M⁻¹ s⁻¹]
O=C1CN(C(=O)C=Cc2ccco2)c2ccccc2N1 [Compound 12]	0.55 ± 0.11
O=C1C(=O)N(Cc2cccc3ccccc23)c2ccc(Br)cc21 [Compound 18]	< 0.08

biological target: T1, LdtMt2; test: biochemical; type: biochemical; set-up: made in house; host or cells: E. coli; conditions: not given

SMILES	LE (ligand efficiency)	pIC50, 0 min	pIC50, 10 min	pIC50, 60 min	pIC50, 120 min
N#Cn1c(-c2cc(F)cc(C(F)(F)F)c2)nc2ccccc21 [Compound 23]	0.51	–	–	–	–
O=C1CN(C(=O)C=Cc2ccco2)c2ccccc2N1 [Compound 12]	0.56	–	–	–	–
Cc1nc(-c2ccc(-c3nc4ccccc4n3C#N)cc2)cs1 [Compound 30]	0.49	–	–	–	–
O=C1C(=O)N(Cc2cccc3ccccc23)c2ccc(Br)cc21 [Compound 18]	0.49	6.39 ± 0.07	6.24 ± 0.23	6.49 ± 0.35	6.56 ± 0.35
N#Cn1c(-c2ccncc2)nc2ccc(C(=O)c3ccccc3)cc21 [Compound 36]	0.45	–	–	–	–
O=C(OCN1C(=O)C=CC1=O)c1ccccc1 [Compound 7]	0.66	–	–	–	–
O=C1C=CC(=O)N1c1ccc(Oc2ccccc2)c(Cl)c1 [Compound 5]	0.53	–	–	–	–
O=C(NC(Cc1ccccc1)C(=O)CCl)c1cc(Cc2ccccc2)on1 (stereo not shown) [Compound 1]	0.41	–	–	–	–

same assay, conditions: Table S5; for LdtMt2

SMILES	LE (ligand efficiency)
O=C1C=CC(=O)N1c1ccccc1 [Compound 3]	0.86

same assay, conditions: Table S5 HTS hits; 30 minute inhibitor pre-incubation; two independent repeats; read-out: pIC50 LdtMt2 (converted)

SMILES	IC50 [µM]
O=C1C=CC(=O)N1c1ccccc1 [Compound 3]	0.0708

biological target: T2, BlaC (Mycobacterium tuberculosis, UniProt P9WKD3); test: BlaC fluorogenic inhibition assay with FC5 (dose-response); type: biochemical; conditions: Table S5 HTS hits; 30 minute inhibitor pre-incubation; two independent repeats
T2 construct: made in house; host or cells: E. coli
Description: Two types of controls were used. […] In control 2, the BlaC mixture was substituted with the assay buffer. This mixture was incubated for 30 minutes at room temperature without shaking. […] Data were analysed using ActivityBase (IDBS).

T2 sequence (P9WKD3 35-307): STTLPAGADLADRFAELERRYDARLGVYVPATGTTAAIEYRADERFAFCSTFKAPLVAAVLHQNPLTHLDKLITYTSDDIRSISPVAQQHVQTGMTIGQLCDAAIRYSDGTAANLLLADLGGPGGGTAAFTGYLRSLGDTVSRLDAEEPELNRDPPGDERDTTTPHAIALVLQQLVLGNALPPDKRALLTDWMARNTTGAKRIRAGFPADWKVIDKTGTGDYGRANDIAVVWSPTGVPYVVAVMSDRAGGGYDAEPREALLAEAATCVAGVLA

SMILES	pIC50 BlaC
N#Cn1c(-c2cc(F)cc(C(F)(F)F)c2)nc2ccccc21 [Compound 23]	< 4.0
O=C1CN(C(=O)C=Cc2ccco2)c2ccccc2N1 [Compound 12]	< 4.0
O=C1C(=O)N(Cc2cccc3ccccc23)c2ccc(Br)cc21 [Compound 18]	< 4.0
N#Cn1c(-c2ccncc2)nc2ccc(C(=O)c3ccccc3)cc21 [Compound 36]	< 4.0
O=C(NC(Cc1ccccc1)C(=O)CCl)c1cc(Cc2ccccc2)on1 (stereo not shown) [Compound 1]	< 4.0

same assay, conditions: pIC50 BlaC, Table S5 HTS hits; 30 minute inhibitor pre-incubation; two independent repeats

SMILES	IC50 [µM]
O=C1C=CC(=O)N1c1ccccc1 [Compound 3]	9.33

biological target: T1, LdtMt2; test: not given; conditions: 1 μM LdtMt2, denaturing acidic conditions

SMILES	covalent modification of LdtMt2 (adduct observed by SPE-MS)
O=C1C(=O)N(Cc2cccc3ccccc23)c2ccc(Br)cc21 [Compound 18]	not observed to modify LdtMt2

biological target: T1, LdtMt2; test: biochemical; type: binding; set-up: made in house; host or cells: E. coli; conditions: not given; remark: another data set of the same source
Description: LdtMt2 (5 μM) was incubated with the inhibitor (500 μM) in assay buffer (50 mM tris pH 7.5) for 30 minutes at room temperature in 96-well white PCR plates (25 μL final volume, Starlab). SYPRO Orange (final concentration 6×, according to manufacturer's definition, Invitrogen) was then added and the plate was sealed using a transparent plastic film (Polyolefin StarSeal, Starlab). Fluorescence was monitored (with λex = 492 nm and λem = 610 nm) using a CFX96 Touch Real-Time PCR Detection System (Bio-Rad), while the temperature was increased from 20 to 95 °C in increments of 0.2 °C. Melting temperatures (Tms) were determined using the CFX Maestro Software (Bio-Rad).

SMILES	ΔTm: difference in melting point of LdtMt2 relative to unreacted LdtMt2 (43.8 °C)	lowered the melting temperature of LdtMt2 by [°C]
N#Cn1c(-c2cc(F)cc(C(F)(F)F)c2)nc2ccccc21 [Compound 23]	-1.3	–
O=C1CN(C(=O)C=Cc2ccco2)c2ccccc2N1 [Compound 12]	+0.3	–
Cc1nc(-c2ccc(-c3nc4ccccc4n3C#N)cc2)cs1 [Compound 30]	-1.6	–
O=C1C(=O)N(Cc2cccc3ccccc23)c2ccc(Br)cc21 [Compound 18]	+2.4	–
N#Cn1c(-c2ccncc2)nc2ccc(C(=O)c3ccccc3)cc21 [Compound 36]	-3.0	3.0
O=C1C=CC(=O)N1c1ccc(Oc2ccccc2)c(Cl)c1 [Compound 5]	-0.2 °C	–

same assay, conditions: 5 µM LdtMt2, 500 µM inhibitor, SYPRO Orange, 50 mM Tris pH 7.5

SMILES	Tm: melting point of LdtMt2 after pre-incubation with the compound [°C]
O=C1C=CC(=O)N1c1ccccc1 [Compound 3]	45.0 ± 0.16

same assay, conditions: pH 7.5

SMILES	Tm: melting point of LdtMt2 after pre-incubation with the compound [°C]
O=C(OCN1C(=O)C=CC1=O)c1ccccc1 [Compound 7]	43.1 ± 0.09
O=C1C=CC(=O)N1c1ccc(Oc2ccccc2)c(Cl)c1 [Compound 5]	43.6 ± 0.16

same assay, conditions: pH 7.5; in °C (unit assumed)

SMILES	Tm: melting point of LdtMt2 after pre-incubation with the compound
N#Cn1c(-c2cc(F)cc(C(F)(F)F)c2)nc2ccccc21 [Compound 23]	42.5 ± 0.09
O=C1CN(C(=O)C=Cc2ccco2)c2ccccc2N1 [Compound 12]	44.1 ± 0.09
Cc1nc(-c2ccc(-c3nc4ccccc4n3C#N)cc2)cs1 [Compound 30]	42.2 ± 0.00
O=C1C(=O)N(Cc2cccc3ccccc23)c2ccc(Br)cc21 [Compound 18]	46.2 ± 0.00
N#Cn1c(-c2ccncc2)nc2ccc(C(=O)c3ccccc3)cc21 [Compound 36]	40.8 ± 0.59

same assay, conditions: read-out: ΔTm: difference in melting point of LdtMt2 relative to unreacted LdtMt2 (43.8 °C)

SMILES	ΔTm at 500 µM [°C]
O=C1C=CC(=O)N1c1ccccc1 [Compound 3]	1.2

test system: M. tuberculosis (strain H37Rv) growth in THP1 cells; test: Intracellular assay: Mtb H37Rv-Luc in THP-1 macrophages; type: cell-based, Mycobacterium tuberculosis; conditions: 5 days, extrapolated from dose-response curve

SMILES	MIC50 intracellular
O=C1C(=O)N(Cc2cccc3ccccc23)c2ccc(Br)cc21 [Compound 18]	35.5 ± 5.4 µM and < 50 µM
N#Cn1c(-c2ccncc2)nc2ccc(C(=O)c3ccccc3)cc21 [Compound 36]	29.5 ± 0.0 µM and < 50 µM
O=C(OCN1C(=O)C=CC1=O)c1ccccc1 [Compound 7]	39.8 ± 0.0 µM and < 50 µM
O=C1C=CC(=O)N1c1ccc(Oc2ccccc2)c(Cl)c1 [Compound 5]	25.7 ± 0.30 µM and < 50 µM
O=C(NC(Cc1ccccc1)C(=O)CCl)c1cc(Cc2ccccc2)on1 (stereo not shown) [Compound 1]	35.5 ± 4.9 µM and < 50 µM

test system: HepG2 cells; test: HepG2 cytotoxicity assay (CellTiter Glo); type: cell-based; conditions: 48 h, ATP read-out
Description: Solutions of the test compounds (250 nL per well; 11 serial dilutions of 1/3 with starting concentration 100 μM) were dispensed in tissue-culture treated black clear-bottomed 384-well plates (Greiner, cat. no. 781091) with an Echo 555 instrument. 25 μL of HepG2 (ATCC HB-8065) cells (∼3000 cells per well) grown to confluency in Eagle's Minimal Essential Medium (MEM) supplemented with 10% (v/v) heat-inactivated FBS, 1% (v/v) non-essential amino acids (NEAA), and 1% (v/v) penicillin/streptomycin were added to each well. Plates were incubated at 37 °C with 20% O2 and 5% CO2 for 48 h. The plates were then equilibrated to room temperature. ATP levels, measured with CellTiter Glo kit (Promega), were used as cell viability read-out. 25 μL of CellTiter Glo substrate dissolved in the buffer was added to each well. Plates were incubated at room temperature for 10 min and read on ViewLux (PerkinElmer) […].

SMILES	IC50 [µM]
N#Cn1c(-c2cc(F)cc(C(F)(F)F)c2)nc2ccccc21 [Compound 23]	28.8
Cc1nc(-c2ccc(-c3nc4ccccc4n3C#N)cc2)cs1 [Compound 30]	3.98 ± 0.1
O=C1C(=O)N(Cc2cccc3ccccc23)c2ccc(Br)cc21 [Compound 18]	42.3 ± 3.4
N#Cn1c(-c2ccncc2)nc2ccc(C(=O)c3ccccc3)cc21 [Compound 36]	32.7 ± 0.38
O=C(OCN1C(=O)C=CC1=O)c1ccccc1 [Compound 7]	3.9 ± 0.88
O=C1C=CC(=O)N1c1ccc(Oc2ccccc2)c(Cl)c1 [Compound 5]	2.51 ± 0.12

test system: M. tuberculosis (strain H37Rv); test: Extracellular assay: M. tuberculosis H37Rv in medium under replicating conditions; type: cell-based, Mycobacterium tuberculosis; conditions: not given

SMILES	MIC50 [µM]
N#Cn1c(-c2cc(F)cc(C(F)(F)F)c2)nc2ccccc21 [Compound 23]	> 100
Cc1nc(-c2ccc(-c3nc4ccccc4n3C#N)cc2)cs1 [Compound 30]	> 100
O=C1C(=O)N(Cc2cccc3ccccc23)c2ccc(Br)cc21 [Compound 18]	> 100
N#Cn1c(-c2ccncc2)nc2ccc(C(=O)c3ccccc3)cc21 [Compound 36]	> 100
O=C(OCN1C(=O)C=CC1=O)c1ccccc1 [Compound 7]	> 100
O=C1C=CC(=O)N1c1ccc(Oc2ccccc2)c(Cl)c1 [Compound 5]	> 100
O=C(NC(Cc1ccccc1)C(=O)CCl)c1cc(Cc2ccccc2)on1 (stereo not shown) [Compound 1]	> 100
